Consider 6 molecules from patent publication US5952298A, “Cryptophycins” (priority 1995, dated 1999).

Entries after “also recorded” stand apart in the source; their conditions may differ. Read-outs that look alike come from different tables or passages of the source.

In series [1] the test system is A-10 rat aortic smooth muscle cells. The format is cell-based. Here is the method:
A-10 cells were grown to near-confluency on glass coverslips in BME/10% FBS. Compounds in PBS were added to the indicated final concentrations and cells were incubated for an additional 24 hours. For the staining of microtubules and intermediate filaments, the cells were fixed with cold methanol and incubated with PBS containing 10% calf serum to block nonspecific binding sites. Cells were then incubated at 37° C. for 60 min with either monoclonal anti-β-tubulin or with monoclonal anti-vimentin at dilutions recommended by the manufacturer. Bound primary antibodies were subsequently visualized by a 45-minute incubation with fluorescein-conjugated rabbit antimouse IgG. The coverslips were mounted on microscope slides and the fluorescence patterns were examined and photographed using a Zeiss Photomicroscope Ill equipped with epifluorescence optics for fluorescein. […] PBS containing 100 nM TRITC-phalloidin was then added and the mixture was allowed to incubate for 45 min at 37° C. The cells were washed rapidly three times with PBS before the coverslips were mounted and immediately photographed as described above.
After 24 hours, microtubules and vimentin intermediate filaments were visualized by indirect immunofluorescence and microfilaments were stained using TRITC-phalloidin. The morphological effects of each drug were examined. […] Vimentin intermediate filaments were also evenly distributed throughout the cytoplasm, while bundles of microfilaments were concentrated along the major axis of the cell.

Series [2] deals with murine leukemia (L1210 or P388), murine solid tumor, human solid tumor and low malignancy fibroblast (LML) cells.
Series [3] relates to Human ovarian carcinoma cells (SKOV3). Briefly: SKOV3 cell proliferation (SRB staining, Example 10). The format is cell-based. As to conditions: SKOV3 treated 24 hours with IC50 dose, then drug-free medium.
Series [4] concerns KB (human nasopharyngeal carcinoma). Briefly: Cytotoxicity against KB cell line. It is filed as cell-based.
In series [5] the test system is LoVo (human colon carcinoma). Briefly: Cytotoxicity against LoVo cell line. The format is cell-based.
Series [6] relates to SKOV3 (human ovarian carcinoma). Briefly: Cytotoxicity against SKOV3 cell line (Table 2). The format is cell-based.
The test system of series [7] is colon adenocarcinoma #38 (Colon 38, C38).
Series [8] deals with H125 Human Adenosq-lung. As to conditions: Exp 1823; SC H125 Human Adenosq-lung; 8 IV inj.; 14.4 mg/kg total dose.
Procedure: (§1) Gross log kill is defmed as T-C/3.2 Td where T is the median time in days for the tumors of the treated group to reach 750 mg, C is the median time in days for the tumors of the control group to reach 750 mg, and Td is the tumor volume doubling time. […] An activity rating of +++ to ++++, which is indicative of clinical activity, is needed to effect partial or complete regression of 100-300 mg size masses of most transplanted solid tumors of mice.
Series [9] relates to murine and human tumors implanted in mice. The note with it: for cause of lethal toxicity observed during testing: mice; for tumor burden T/C (mean tumor burden in treated animals/mean tumor burden untreated animals): text summary over the tumors named in the sentence.
Procedure: as §1
Series [10] has as its system strains of Cryptococcus. As to conditions: found by researchers at Merck; cited from earlier work.
Series [11] has as its system MX-1 Human Breast. Briefly: In vivo activity, SC MX-1 tumor. As to conditions: Exp 1806; SC MX-1 Human Breast; 8 IV inj.; 12 mg/kg total dose.
Procedure: as §1
Series [12] has as its system M17/0 (Adr. Sens.). Briefly: In vivo activity, SC M17/0 tumor. The note with it: Exp 1833; SC M17/0 (Adr. Sens.); 5 IV inj.; 5.4 mg/kg total dose.
Procedure: as §1
Series [13] concerns LNCaP Human Prostate. Briefly: In vivo activity, SC LNCaP tumor. As to conditions: Exp 1841, 6 IV inj., 6.5 mg/kg total dose.
Procedure: Gross log kill is defmed as T-C/3.2 Td where T is the median time in days for the tumors of the treated group to reach 750 mg, C is the median time in days for the tumors of the control group to reach 750 mg, and Td is the tumor volume doubling time.
Series [14] deals with Human Sm Cell L. DMS273. Briefly: In vivo activity, SC DMS273 tumor. The note with it: Exp 1596; SC Human Sm Cell L. DMS273 SCID; 6 IV inj.; 7.3 mg/kg total dose.
Procedure: as §1
Series [15] has as its system colon adenocarcinoma #51 (Colon 51). Briefly: In vivo activity, SC Colon 51 tumor.
The subject of series [16] is Mam 16/C (taxol-sensitive mammary #16/C). Briefly: In vivo activity, SC Mam 16/C tumor.
Series [17] relates to Mam 16/Taxol (taxol-resistant mammary #16/C/RP). Briefly: In vivo activity, SC Mam 16/Taxol tumor. As to conditions: Exp 1733, 5 IV inj., 16.5 mg/kg total dose.
Procedure: as §1
The test system of series [18] is tumor (leukemia) and normal cell (CFUGM) lines. Briefly: Valeriote assay. As to conditions: 5 μg/disk. The format is cell-based.
Procedure: ^b N = nonselective towards tumor (leukemia) and normal cell (CFUGM)
LL = lymphocytic leukemia selective (ZL1210 - ZCFUM ≥ 25
ML = acute myelogenous leukemia (AML) selective (ZAML - ZCFUGM
The test system of series [19] is pancreatic ductal adenocarcinoma #03 (Panc 03, P03). As to conditions: Exp 1825; SC P03; 11 IV inj.; 106 mg/kg TD.
[20] abbreviates: 24 hours, 2 μM cytochalasin B, 100 nM vinblastine or 10 nM cryptophycin compounds.
[21] abbreviates: Exp 1560, SC Colon 38, 8 IV inj., 10.3 mg/kg total dose.
The mark [22] stands for this setting: Exp 1636, 7 IV inj., 28.1 mg/kg total dose.
Where [23] appears, read: Exp 1720, 5 IV inj., 13.2 mg/kg total dose.
[24] abbreviates: Exp 1769, SC C38, 15 IV inj., 45 mg/kg TD.
Setting [25] is: Exp 1887B, SC C38, 6 IV inj., 30 mg/kg TD.
The mark [26] stands for this setting: Exp 1900, 9 IV inj., 67.5 mg/kg TD.
The mark [27] stands for this setting: Exp 1885, 7 IV inj., 21.3 mg/kg TD.

Take `CC(=O)O[C@H]1C(=O)[C@@]2(C)[C@H]([C@H](OC(=O)c3ccccc3)[C@]3(O)C[C@H](OC(=O)[C@H](O)[C@@H](NC(=O)c4ccccc4)c4ccccc4)C(C)=C1C3(C)C)[C@]1(OC(C)=O)CO[C@@H]1C[C@@H]2O` [taxol, reference compound]: the “microtubule organization in taxol-treated cells” value in series [1] (10 μM taxol) was “extensively bundled”. In addition, in series [2] (0.2 μg/disk), the “Differential in Zone Units, Corbett Assay” value (“Differential … Corbett Assay” for short) is ≥ 400 zone units and the “Type of Cytotoxicity, Corbett Assay” value is “M/H/T”.

For the molecule `CC[C@]1(O)C[C@@H]2CN(CCc3c([nH]c4ccccc34)[C@@](C(=O)OC)(c3cc4c(cc3OC)N(C)[C@H]3[C@@](O)(C(=O)OC)[C@H](OC(C)=O)[C@]5(CC)C=CCN6CC[C@]43[C@@H]65)C2)C1` [vinblastine], the “increase in cell number in the 24 hours following removal of the drug” value in [3] is on record as “approximately 3 fold”. Further, the “microtubule depolymerization after taxol pretreatment” value in series [1] (3 hours 10 μM taxol, then 100 nM vinblastine or 10 nM cryptophycin compound, 24 hours) was “pretreatment with taxol prevented microtubule depolymerization”. Also, in series [1] (24 hours, 100 nM vinblastine or 10 nM cryptophycin compounds), the “effect on vimentin intermediate filaments” value is given as “vimentin intermediate filaments collapsed”. For the same molecule, the effect on microtubules result in series [1] (setting [20]) is “marked depletion of microtubules; also recorded: complete depolymerization of microtubules”. Moreover, the “reversibility of microtubule depolymerization after removal of the drug” value in series [1] (24 hr treatment (100 nM vinblastine or 10 nM cryptophycins), then 1 hour or 24 hours drug-free medium) was “complete morphological recovery by 24 hour”.

In general, T/C refers to the result in the treated group divided by that in the control group, in per cent. In the case of `COc1ccc(C[C@H]2NC(=O)/C=C/C[C@@H]([C@H](C)[C@H]3O[C@@H]3c3ccccc3)OC(=O)[C@H](CC(C)C)OC(=O)[C@H](C)CNC2=O)cc1Cl` [Cryptophycin 1], the “KB IC50” value in series [4] (Table 1) is given as 0.005 ng/mL; in [4] (Table 2) it was 0.0025 ng/mL. For the same molecule, the “LoVo IC50” value in series [5] (Table 1) came out at 0.003 ng/mL; in [5] (Table 2) it was 0.001 ng/mL. The “SKOV3 IC50” value in [6] is listed as 0.026 ng/mL. In addition, the “Differential … Corbett Assay” value in series [2] (12.5 μg/disk) is > 400 zone units. Moreover, in [2] (12.5 μg/disk), the “Type of Cytotoxicity, Corbett Assay” value was “E/T”. The “% Body Wt. Loss at Nadir” value in series [7] (setting [21]) was “Gain”; in [8], -15%; in series [11] it was -3%; in series [12], -10%; in series [13], -6%; in [14], 0%. Moreover, the “% Body Wt. Loss at Nadir” value in series [15] (setting [22]) was -11%; in series [16] (setting [23]), -1%; in [17], 0%. Also, the Cures in series [7] (setting [21]), in series [8], in series [11], in series [12], in [13] and in series [14] was 0/5 in each case. The Cures in series [15] (setting [22]) is 0/5; in series [16] (setting [23]) it was 0/5; in series [17], 0/4. The “Log Kill” value in [7] (setting [21]) is reported as 1.5; in series [8] it was 1.1; in series [11], 2.0; in series [12], < 1; in [13] it was < 1; in series [14], < 1. For the same molecule, the “Log Kill” value in series [15] (setting [22]) was 1.3; in series [16] (setting [23]), 1.4; in series [17], 1.8. Further, the T/C is recorded as 6% in series [7] (setting [21]); 9% in series [8]; 3% in series [11]; 23% in series [12]; 26% in series [13]; 27% in [14]. The T/C stood at 7% in [15] (setting [22]), 5% in series [16] (setting [23]) and 2% in series [17]. In addition, the “dead (animals)” value in series [8] is 1/5. For the same molecule, in series [9], the “in vivo activity (in words)” value is “active against a broad spectrum of murine and human tumors implanted in mice”. Moreover, the “cause of lethal toxicity observed during testing” value in [9] is given as “leucopenia”. The “tumor burden T/C (mean tumor burden in treated animals/mean tumor burden untreated animals)” value in series [9] was “less than 10%”. Also, the antifungal activity result in series [10] is reported as “very active against strains of Cryptococcus”.

As for `C=C1[C@@H](C)[C@H]2[C@H](Cc3ccccc3)NC(=O)[C@]23OC(=O)/C=C/[C@H](O)CCC[C@@H](C)C/C=C/[C@H]3[C@@H]1O` [Cytochalasin B, cytochalasin B], in series [1] (2 μM cytochalasin B, 24 hours), the effect on microfilaments entry is reported as “complete depolymerization of microfilaments”. In addition, the effect on microtubules entry in series [1] (setting [20]) is reported as “did not affect the distribution of either microtubules or intermediate filaments”.

Turning to `COc1cc([C@@H]2c3cc4c(cc3[C@@H](O[C@@H]3O[C@@H]5CO[C@@H](C)O[C@H]5[C@H](O)[C@H]3O)[C@H]3COC(=O)[C@H]23)OCO4)cc(OC)c1O` [VP-16, etoposide, reference compound], in [18], the “Differential in Zone Units, Valeriote Assay” value is given as 260 zone units. The “Differential … Corbett Assay” value in series [2] (5 μg/disk) is recorded as 350 zone units.

`COc1ccc(C[C@H]2NC(=O)/C=C/C[C@@H]([C@H](C)[C@@H](O)[C@@H](Cl)c3ccccc3)OC(=O)[C@H](CC(C)C)OC(=O)[C@H](C)CNC2=O)cc1Cl` [Cryptophycin 8]: in [4] (Table 1), the “KB IC50” value is 0.0002 ng/mL. For the same molecule, the “KB IC50” value in [4] (Table 2) was found to be 0.01 ng/mL. Moreover, the “LoVo IC50” value in [5] (Table 1) is listed as 0.01 ng/mL. For the same molecule, the “LoVo IC50” value in [5] (Table 2) came to 0.0022 ng/mL. For the same molecule, the “SKOV3 IC50” value in series [6] stood at 0.15 ng/mL. Moreover, in series [2] (30 μg/disk), the “Differential … Corbett Assay” value was > 500 zone units and the “Type of Cytotoxicity, Corbett Assay” value is reported as “E/T”. Besides, in series [7] (setting [24]), the “% Body Wt. Loss at Nadir” value is -2%, the Cures is listed as 0/5 and the T/C is on record as > 100%. For the same molecule, in [7] (setting [25]), the “% Body Wt. Loss at Nadir” value is -2%, the Cures is on record as 1/5 and the T/C was 0%. For the same molecule, the “Log Kill” value in series [7] (mouse, in vivo, 30 mg/kg) is 2.8. In addition, the “Log Kill” value in series [7] (mouse, in vivo, 45 mg/kg) is recorded as “None”. In addition, in [19], the “% Body Wt. Loss at Nadir” value is reported as -6%, the Cures was 0/5, the “Log Kill” value amounted to 4.6 and the T/C is on record as 4%. Also, in [9], the “cures (in words)” value is recorded as “some cures”, the “gross log kill activity rating” value is given as “+++ to ++++”, the “in vivo activity (in words)” value is “active against a broad spectrum of tumors implanted in mice” and the “cause of lethal toxicity observed during testing” value is on record as “leucopenia”. Besides, the “tumor burden T/C (mean tumor burden in treated animals/mean tumor burden untreated animals)” value in [9] was < 10%. In [15] (setting [26]), the “% Body Wt. Loss at Nadir” value is listed as -1%, the Cures was 0/5, the “Log Kill” value was determined as 1.8 and the T/C was determined as 7%. Further, in [16] (setting [27]), the “% Body Wt. Loss at Nadir” value is listed as -4.5%, the Cures is on record as 0/5, the “Log Kill” value is on record as 2.5 and the T/C came to 6%.
